Laboratory results from patent publication EP1149079B1, “TETRAHYDRO ISOQUINO LINEALKANOL DERIVATIVES AND PHARMACEUTICAL COMPOSITIONS CONTAINING SAME” (SK Corporation, priority 1999, dated 2000).

How the values were obtained:
[1] = system: mice; experiment: Head-twitch test (5-HTP-induced head-twitch response); assay type: in vivo; settings: oral, head twitches counted in a 2-minute period 30 min after 5-HTP 100 mg/kg ip, versus vehicle control
Experimental: The head-twitch response of mice is initiated by a variety of 5-HT mimetic drugs. The test was conducted in a manner similar to the procedure described by Heal, D.J., Philpot, J, O'Shaughnessy, K.M. and Davies, C.L.: The influence of central noradrenergic function on 5-HT-mediated head-twitch responses in mice: Possible implications for the actions of antidepressant drugs. Psychopharmacology 89: 414-420, 1986,
The head-twitch consisted of a characteristic rotation of the head, neck and shoulders of the mice. The test drug or vehicle was given by oral gavage. Thirty minutes later all animals were pretreated with carbidopa (25 mg/kg ip). Fifteen minutes following carbidopa administration, the mice were injected with 100 mg/kg ip of L-5-hydroxytryptophan (5-HTP). The animals were then left for 30 minutes before measurement of the head-twitch response in the following 2-minute period. For calculation of percent (%) response increase, the difference in drug head twitch number versus the control vehicle head twitch number is divided by the control head twitch and multiplied by 100.

[2] = target: T1, MAO-A (Rattus norvegicus, UniProt P21396); experiment: MAO-A inhibiting activity in vitro, radioisotopic assay with [14C] serotonin; assay type: biochemical; settings: Rat liver mitochondrial membranes, 300 nM deprenyl to block MAO-B, preincubation 60 minutes at 37°C
T1 construct: Rat liver mitochondrial membranes as the source of the enzyme; from tissue; host or cells: rat liver mitochondrial membranes
T1 sequence (P21396 1-526): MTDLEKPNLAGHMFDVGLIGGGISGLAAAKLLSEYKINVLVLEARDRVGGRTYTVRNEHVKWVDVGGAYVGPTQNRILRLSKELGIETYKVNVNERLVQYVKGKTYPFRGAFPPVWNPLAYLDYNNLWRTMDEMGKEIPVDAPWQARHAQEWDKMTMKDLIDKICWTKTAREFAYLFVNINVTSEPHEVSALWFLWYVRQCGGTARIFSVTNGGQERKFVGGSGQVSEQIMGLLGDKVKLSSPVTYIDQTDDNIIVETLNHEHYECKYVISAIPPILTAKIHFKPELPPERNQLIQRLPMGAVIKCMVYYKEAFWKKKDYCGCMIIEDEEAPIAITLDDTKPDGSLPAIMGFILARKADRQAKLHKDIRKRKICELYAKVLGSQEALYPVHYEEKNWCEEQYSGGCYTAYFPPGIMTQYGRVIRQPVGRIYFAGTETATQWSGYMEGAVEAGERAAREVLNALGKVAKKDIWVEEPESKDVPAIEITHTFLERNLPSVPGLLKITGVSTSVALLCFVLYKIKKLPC
Experimental: The MAO-A activities in vitro were measured using Rat liver mitochondrial membranes as the source of the enzyme, according to modified method of S. Otsuka & Y. Kobayashi. A Radioisotopic Assay for Monoamine Oxidase Determinations in Human Plasma. Biochem. Pharmacol. 13: 995-1006 (1964)
Rat liver mitochondrial membranes is preincubated with drug or vehicle, and subtype selective blocker (300 nM deprenyl to block the B type of MAO) for 60 minutes at 37°C in 100 mM KPO4 (pH 7.2). [^14C] Serotonin ([…]) is then added and incubated for 10 minutes. The reaction is stopped by the addition of 0.5 ml of 2M citric acid. Radioactive product is extracted into a toluene/ethyl acetate fluor and compared to control values by scintillation spectrophotometry in order to ascertain any interactions of test compounds with MAO-A.

[3] = system: mice; experiment: Behavior Despair (Forced Swimming) test, mice dosed ip; assay type: in vivo; settings: reduction in immobility time versus vehicle; dose 30 mg/kg (ip); one hour after dosing; 15-minute test period
Experimental: (§1) Behavior Despair (Forced Swimming) test, a well known pharmacological screening method for depression, was conducted similar to the test described by Porsolt, R.D., Bertin, A. and Jalfre, M.: Behavior despair in mice: A preliminary screening test for antidepressants. Arch. Int. Pharmacodyn. Ther. 229: 327-336, 1977.
Mice were dosed intraperitoneally (ip) with either test compound or vehicle. One hour later each animal was placed in a 1500 mL glass beaker containing water at room temperature. Mice were kept in the water for a period of 15 minutes and the duration of immobility observed within the 15-minute test period was recorded. A mouse was judged to be immobile if it floated motionlessly in the water making only those movements necessary to keep its head above the water. For calculation of percent (%) reduction in immobility time, the difference in immobility time for control vehicle versus the drug is divided by the immobility time of the control vehicle and multiplied by 100.

[4] = system: Rats; experiment: Behavior Despair (Forced Swimming) test, rats dosed po; assay type: in vivo; settings: reduction in immobility time versus vehicle; dose 60 mg/kg (po); one hour after dosing; 4-minute test period
Experimental: as §1
Rats were pre-swam for 10 minute the day before the test in 4000 mL glass cylinders containing water at 25°C. On the following day, rats were dosed orally (po) with either test compound or vehicle. One hour later each animal was placed in the glass cylinder and, following a 2-minute pretest, immobility was recorded for a 4-minute test period. For calculation of percent (%) reduction in immobility time, the difference in immobility time for control vehicle versus the drug is divided by the immobility time of the control vehicle and multiplied by 100.

For `NC(=O)OCC1Cc2ccccc2CN1` (racemic) [Example 5, (RS)-3-Carbamoyloxymethyl-1,2,3,4-tetrahydroisoquinoline], the “% Response Increase” value ([1]; dose 3 mg/kg) was 144%.
`NC(=O)OC[C@H]1Cc2ccccc2CN1` [Example 4, (R)-3-Carbamoyloxymethyl-1,2,3,4-tetrahydroisoquinoline] was tested, and the inhibition at 10 µM [2] was 63.9% and the “% Response Increase” value ([1]; dose 15 mg/kg) was 258%.
In the case of `CNC(=S)OC[C@@H]1Cc2ccccc2CN1C(=O)Nc1ccccc1` [Example 17, (S)-3-(N-Methyl-thiocarbamoyloxymethyl)-N-(anilinocarbonyl)-1,2,3,4-tetrahydroisoquinoline], the “% Reduction” value [3] is reported as 46%.
In the case of `NC(=S)OCC1Cc2ccccc2CN1` (centres unmarked) [Example 14, 3-Thiocarbamoyloxymethyl-1,2,3,4-tetrahydroisoquinoline], the “% Response Increase” value ([1]; dose 8 mg/kg) is reported as 42%.
`NC(=O)OC[C@@H]1Cc2ccccc2CN1` [Example 3, (S)-3-Carbamoyloxymethyl-1,2,3,4-tetrahydroisoquinoline] was tested, and the inhibition at 10 µM [2] was 97.7%, the “% Reduction” value [4] was 83% and the “% Response Increase” value ([1]; dose 1 mg/kg) was 238%.
With `CNC(=S)OC[C@@H]1Cc2ccccc2CN1C` [Example 18, (S)-3-(N-Methylthiocarbamoyloxymethyl)-N-methyl-1,2,3,4-tetrahydroisoquinoline] the “% Reduction” value [3] was 33%.
`CNC(=S)OC[C@@H]1Cc2ccccc2CN1` [Example 16, (S)-3-(N-Methylthiocarbamoyloxymethyl)-1,2,3,4-tetrahydroisoquinoline] was tested, and the “% Reduction” value [3] was 56%.
`CN1Cc2ccccc2C[C@H]1COC(N)=O` [Example 8, (S)-3-Carbamoyloxymethyl-N-methyl-1,2,3,4-tetrahydroisoquinoline] was tested, and the “% Response Increase” value ([1]; dose 1 mg/kg) was 77%.
